ChEMBL document CHEMBL4266064, “B-973, a Novel α7 nAChR Ago-PAM: Racemic and Asymmetric Synthesis, Electrophysiological Studies, and in Vivo Evaluation” (ACS Med Chem Lett, 2018)
Calls of active or inactive are those of the source. The calls are words filed in the database; no cut-off is given here.

How the values were obtained:
[1] = target: Neuronal acetylcholine receptor subunit alpha-7 (Homo sapiens) (UniProt P36544); assay: (§1) Positive allosteric modulation of human alpha7 nAChR expressed in Xenopus laevis oocytes assessed as increase in acetyl choline-evoked currents at 10 to 100 uM treated for 21 secs followed by compound washout measured after 181 secs by electrophysiology method; assay type: cell-based
[2] = target: Neuronal acetylcholine receptor subunit alpha-7 (Homo sapiens) (UniProt P36544); assay: as §1, with “at” for “at 10 to”, “pretreated followed by co-treatment with acetyl choline” for “treated”, “and subsequent” for “followed by”; assay type: cell-based
Mus musculus [3] = assay: Antinociceptive activity in formalin-induced nociception pain ICR mouse model assessed as reduction in paw edema at 3 to 10 mg/kg, ip administered 15 mins prior to formalin challenge measured after 1 hr by calliper method; assay type: functional, organism-based
Mus musculus [4] = assay: Antinociceptive activity in formalin-induced nociception pain ICR mouse model assessed as reduction in time spent licking in hind paw at 10 mg/kg, ip administered 15 mins prior to formalin challenge measured up to 5 mins; assay type: functional, organism-based
[5] = target: Neuronal acetylcholine receptor subunit alpha-7 (Homo sapiens) (UniProt P36544); assay: as §1, with “10” for “10 to 100”, “pretreated followed by co-treatment with acetyl choline” for “treated”, “and subsequent” for “followed by”; assay type: cell-based
Mus musculus [6] = assay: Antinociceptive activity in formalin-induced nociception pain ICR mouse model assessed as reduction in time spent licking in hind paw at 10 mg/kg, ip administered 15 mins prior to formalin challenge measured after 20 to 45 mins in presence of alpha7 nAChR antagonist MLA; assay type: functional, organism-based
Mus musculus [7] = assay: Antinociceptive activity in ip dosed formalin-induced nociception pain ICR mouse model assessed as reduction in time spent licking in hind paw administered 15 mins prior to formalin challenge measured after 20 to 45 mins; assay type: functional, organism-based
Mus musculus [8] = assay: Antinociceptive activity in formalin-induced nociception pain ICR mouse model assessed as reduction in time spent licking in hind paw at 10 mg/kg, ip administered 15 mins prior to formalin challenge measured up to 5 mins in presence of alpha7 nAChR antagonist MLA; assay type: functional, organism-based

Chain of Neuronal acetylcholine receptor subunit alpha-7 (Homo sapiens) (P36544 whole entry): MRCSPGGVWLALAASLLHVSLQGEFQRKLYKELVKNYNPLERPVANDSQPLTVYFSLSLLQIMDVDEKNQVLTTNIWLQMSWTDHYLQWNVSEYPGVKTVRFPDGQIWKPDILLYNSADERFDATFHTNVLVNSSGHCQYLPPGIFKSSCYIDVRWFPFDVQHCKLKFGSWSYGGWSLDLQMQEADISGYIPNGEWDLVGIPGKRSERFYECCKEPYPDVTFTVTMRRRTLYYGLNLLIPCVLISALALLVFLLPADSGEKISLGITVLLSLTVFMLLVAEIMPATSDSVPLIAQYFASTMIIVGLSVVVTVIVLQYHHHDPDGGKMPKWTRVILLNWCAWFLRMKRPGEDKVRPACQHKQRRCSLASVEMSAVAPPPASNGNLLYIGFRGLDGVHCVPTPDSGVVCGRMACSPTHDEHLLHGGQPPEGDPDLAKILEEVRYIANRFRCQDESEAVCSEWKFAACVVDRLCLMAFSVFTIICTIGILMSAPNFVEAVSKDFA

| Activity [1] | Activity [2] | Activity [5] | SMILES | Activity (Mus musculus [3]) | Activity (Mus musculus [4]) | Activity (Mus musculus [6]) | Activity (Mus musculus [7]) | Activity (Mus musculus [8]) |
| --- | --- | --- | --- | --- | --- | --- | --- | --- |
| inactive | inactive | – | C[C@@H](NC(=O)CCc1ccc(F)c(F)c1)c1cncc(N2CCN(c3ccccn3)CC2)n1 | – | – | – | – | – |
| Active | Active | Active | C[C@H](NC(=O)CCc1ccc(F)c(F)c1)c1cncc(N2CCN(c3ccccn3)CC2)n1 | Active | Active | inactive | Dose-dependent effect | inactive |
